Measurements from ChEMBL document CHEMBL5465560, “Selectivity Literature for EUbOPEN Chemogenomic Library” (2024).
Blank lines part the entries; values can stand above or below the compound they belong to.

How the values were obtained:
[1] = target: T1, Serine/threonine-protein kinase Nek5 (Homo sapiens) (UniProt Q6P3R8); test: Selectivity interaction (Ambit KINOMEscan and KiNATiv profiling in Jurkat cells) EUB0000090b NEK5; format: cell-based; conditions: at 1 µM
T1 sequence (whole entry): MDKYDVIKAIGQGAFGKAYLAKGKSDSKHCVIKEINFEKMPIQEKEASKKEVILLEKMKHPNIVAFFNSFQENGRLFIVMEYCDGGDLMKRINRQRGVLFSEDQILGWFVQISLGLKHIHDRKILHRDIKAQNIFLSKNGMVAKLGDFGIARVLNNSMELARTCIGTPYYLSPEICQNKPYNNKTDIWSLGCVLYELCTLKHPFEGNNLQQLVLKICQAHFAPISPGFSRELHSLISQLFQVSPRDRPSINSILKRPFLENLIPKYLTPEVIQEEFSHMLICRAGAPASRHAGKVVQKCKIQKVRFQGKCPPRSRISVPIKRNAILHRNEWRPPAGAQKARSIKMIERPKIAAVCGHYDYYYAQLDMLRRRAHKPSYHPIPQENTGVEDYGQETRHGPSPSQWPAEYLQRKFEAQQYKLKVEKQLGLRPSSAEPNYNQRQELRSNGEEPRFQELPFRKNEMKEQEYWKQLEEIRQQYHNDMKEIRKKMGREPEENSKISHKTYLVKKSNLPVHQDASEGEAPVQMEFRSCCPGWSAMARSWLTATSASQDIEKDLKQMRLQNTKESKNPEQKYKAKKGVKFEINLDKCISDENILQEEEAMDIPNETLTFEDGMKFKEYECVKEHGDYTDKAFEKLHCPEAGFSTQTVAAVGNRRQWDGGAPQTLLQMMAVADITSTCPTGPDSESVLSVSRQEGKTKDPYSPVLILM

[2] = target: Serine/threonine-protein kinase B-raf (Homo sapiens) (UniProt P15056); test: Selectivity interaction (Kinase panel (Invitrogen)) EUB0000639a BRAF; conditions: at 200 nM
[3] = target: Calcium/calmodulin-dependent protein kinase type II subunit beta (Homo sapiens) (UniProt Q13554); test: Selectivity interaction (Kinase panel (Z-LYTE Assay)) EUB0001632a CAMK2B; conditions: at 10 µM
[4] = target: Leukocyte tyrosine kinase receptor (Homo sapiens, UniProt P29376); test: Selectivity interaction (KinomeScan (DiscoverX)) EUB0000695a LTK; conditions: at 100 nM
[5] = target: T2, Aurora kinase A (Homo sapiens) (UniProt O14965); test: Selectivity interaction (KinomeScan (DiscoverX)) EUB0000092b STK6; conditions: at 10 µM
T2 sequence (whole entry): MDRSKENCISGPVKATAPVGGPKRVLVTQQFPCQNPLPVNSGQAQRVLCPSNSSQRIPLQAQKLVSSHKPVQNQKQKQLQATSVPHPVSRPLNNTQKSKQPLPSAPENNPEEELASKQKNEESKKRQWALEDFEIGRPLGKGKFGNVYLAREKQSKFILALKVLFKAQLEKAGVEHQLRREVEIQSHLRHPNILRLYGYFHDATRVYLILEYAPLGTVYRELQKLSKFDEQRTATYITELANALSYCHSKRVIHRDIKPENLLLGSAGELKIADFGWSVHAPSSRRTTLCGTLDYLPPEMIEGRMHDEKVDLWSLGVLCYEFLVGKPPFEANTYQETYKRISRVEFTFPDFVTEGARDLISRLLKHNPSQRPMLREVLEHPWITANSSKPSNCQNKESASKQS

[6] = target: Serine/threonine-protein kinase B-raf (Homo sapiens) (UniProt P15056); test: Selectivity interaction (ActivX KiNativ screen (ex vivo kinase selectivity in human PBMCs)) EUB0001619a BRAF; format: cell-based; conditions: PBMC, at 1 µM
[7] = target: Serine/threonine-protein kinase N1 (Homo sapiens, UniProt Q16512); test: Selectivity interaction (KinomeScan (DiscoverX)) EUB0000618a PKN1; conditions: at 10 µM
[8] = target: Myosin light chain kinase, smooth muscle (Homo sapiens, UniProt Q15746); test: Selectivity interaction (KinomeScan (DiscoverX)) EUB0000607a MYLK; conditions: at 10 µM
[9] = target: T3, Serine/threonine-protein kinase TAO3 (Homo sapiens) (UniProt Q9H2K8); test: Selectivity interaction (KinomeScan (DiscoverX)) EUB0000607a TAOK3; conditions: at 10 µM
T3 sequence (whole entry): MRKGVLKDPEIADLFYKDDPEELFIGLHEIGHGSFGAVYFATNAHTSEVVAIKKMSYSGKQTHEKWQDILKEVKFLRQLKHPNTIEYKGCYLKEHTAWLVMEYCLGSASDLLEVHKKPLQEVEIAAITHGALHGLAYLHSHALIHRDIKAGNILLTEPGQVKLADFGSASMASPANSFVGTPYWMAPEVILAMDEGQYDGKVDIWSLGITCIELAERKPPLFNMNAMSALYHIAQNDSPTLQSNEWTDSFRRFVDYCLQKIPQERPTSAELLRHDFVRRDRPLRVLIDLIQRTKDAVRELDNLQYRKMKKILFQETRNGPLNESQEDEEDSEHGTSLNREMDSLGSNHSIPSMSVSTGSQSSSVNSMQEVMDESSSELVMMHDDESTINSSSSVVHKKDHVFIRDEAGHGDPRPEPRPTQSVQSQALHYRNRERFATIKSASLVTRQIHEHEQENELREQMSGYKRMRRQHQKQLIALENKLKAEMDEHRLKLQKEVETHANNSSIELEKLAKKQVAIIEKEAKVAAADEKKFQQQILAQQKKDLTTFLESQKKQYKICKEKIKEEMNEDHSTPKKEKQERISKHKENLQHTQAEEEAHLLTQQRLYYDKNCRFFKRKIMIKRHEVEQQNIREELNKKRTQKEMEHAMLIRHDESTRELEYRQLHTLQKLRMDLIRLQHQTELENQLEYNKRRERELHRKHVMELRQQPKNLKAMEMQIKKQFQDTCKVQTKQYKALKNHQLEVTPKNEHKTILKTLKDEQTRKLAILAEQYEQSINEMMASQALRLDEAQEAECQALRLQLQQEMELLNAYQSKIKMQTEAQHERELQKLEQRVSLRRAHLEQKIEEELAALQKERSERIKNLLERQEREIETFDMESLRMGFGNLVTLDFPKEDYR

Sequence of Serine/threonine-protein kinase B-raf (Homo sapiens) (P15056 whole entry): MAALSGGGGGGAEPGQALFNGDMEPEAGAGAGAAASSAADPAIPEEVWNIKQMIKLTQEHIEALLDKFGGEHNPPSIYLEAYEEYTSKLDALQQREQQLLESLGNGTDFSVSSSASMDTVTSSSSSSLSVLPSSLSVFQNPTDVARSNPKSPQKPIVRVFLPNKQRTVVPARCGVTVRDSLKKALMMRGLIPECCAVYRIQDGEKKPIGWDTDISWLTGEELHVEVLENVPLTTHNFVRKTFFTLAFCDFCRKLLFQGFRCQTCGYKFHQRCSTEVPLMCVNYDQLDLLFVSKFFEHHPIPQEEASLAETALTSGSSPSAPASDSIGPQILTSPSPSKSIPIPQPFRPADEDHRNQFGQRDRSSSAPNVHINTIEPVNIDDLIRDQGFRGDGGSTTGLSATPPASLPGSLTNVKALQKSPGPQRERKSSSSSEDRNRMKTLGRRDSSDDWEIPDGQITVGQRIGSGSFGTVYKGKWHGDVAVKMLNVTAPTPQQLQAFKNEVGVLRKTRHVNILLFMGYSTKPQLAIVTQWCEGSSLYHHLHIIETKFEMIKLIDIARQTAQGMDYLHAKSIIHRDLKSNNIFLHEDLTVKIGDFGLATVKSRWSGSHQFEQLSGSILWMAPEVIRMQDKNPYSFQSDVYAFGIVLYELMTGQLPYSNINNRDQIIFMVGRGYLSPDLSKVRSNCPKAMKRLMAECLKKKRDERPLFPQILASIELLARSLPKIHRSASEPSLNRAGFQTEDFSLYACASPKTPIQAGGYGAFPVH
Sequence of Calcium/calmodulin-dependent protein kinase type II subunit beta (Homo sapiens) (Q13554 whole entry): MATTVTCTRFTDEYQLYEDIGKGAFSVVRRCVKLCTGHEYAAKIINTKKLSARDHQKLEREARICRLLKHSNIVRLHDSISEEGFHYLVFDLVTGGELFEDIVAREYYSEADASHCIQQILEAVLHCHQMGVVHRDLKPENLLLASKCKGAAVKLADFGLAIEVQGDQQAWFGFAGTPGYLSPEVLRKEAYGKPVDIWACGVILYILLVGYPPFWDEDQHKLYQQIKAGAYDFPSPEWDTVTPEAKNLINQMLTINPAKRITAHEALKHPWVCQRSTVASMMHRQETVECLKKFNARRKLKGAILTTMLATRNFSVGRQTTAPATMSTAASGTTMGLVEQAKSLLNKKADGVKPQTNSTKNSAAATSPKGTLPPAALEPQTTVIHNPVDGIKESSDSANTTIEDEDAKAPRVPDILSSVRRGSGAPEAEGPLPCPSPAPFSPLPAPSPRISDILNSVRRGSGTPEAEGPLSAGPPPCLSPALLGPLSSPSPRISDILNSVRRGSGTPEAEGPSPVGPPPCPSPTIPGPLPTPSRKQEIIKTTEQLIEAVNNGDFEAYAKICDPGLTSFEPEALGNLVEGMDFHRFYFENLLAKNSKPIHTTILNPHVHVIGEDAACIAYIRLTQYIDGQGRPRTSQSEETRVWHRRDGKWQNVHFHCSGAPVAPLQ
Sequence of Myosin light chain kinase, smooth muscle (Q15746 whole entry): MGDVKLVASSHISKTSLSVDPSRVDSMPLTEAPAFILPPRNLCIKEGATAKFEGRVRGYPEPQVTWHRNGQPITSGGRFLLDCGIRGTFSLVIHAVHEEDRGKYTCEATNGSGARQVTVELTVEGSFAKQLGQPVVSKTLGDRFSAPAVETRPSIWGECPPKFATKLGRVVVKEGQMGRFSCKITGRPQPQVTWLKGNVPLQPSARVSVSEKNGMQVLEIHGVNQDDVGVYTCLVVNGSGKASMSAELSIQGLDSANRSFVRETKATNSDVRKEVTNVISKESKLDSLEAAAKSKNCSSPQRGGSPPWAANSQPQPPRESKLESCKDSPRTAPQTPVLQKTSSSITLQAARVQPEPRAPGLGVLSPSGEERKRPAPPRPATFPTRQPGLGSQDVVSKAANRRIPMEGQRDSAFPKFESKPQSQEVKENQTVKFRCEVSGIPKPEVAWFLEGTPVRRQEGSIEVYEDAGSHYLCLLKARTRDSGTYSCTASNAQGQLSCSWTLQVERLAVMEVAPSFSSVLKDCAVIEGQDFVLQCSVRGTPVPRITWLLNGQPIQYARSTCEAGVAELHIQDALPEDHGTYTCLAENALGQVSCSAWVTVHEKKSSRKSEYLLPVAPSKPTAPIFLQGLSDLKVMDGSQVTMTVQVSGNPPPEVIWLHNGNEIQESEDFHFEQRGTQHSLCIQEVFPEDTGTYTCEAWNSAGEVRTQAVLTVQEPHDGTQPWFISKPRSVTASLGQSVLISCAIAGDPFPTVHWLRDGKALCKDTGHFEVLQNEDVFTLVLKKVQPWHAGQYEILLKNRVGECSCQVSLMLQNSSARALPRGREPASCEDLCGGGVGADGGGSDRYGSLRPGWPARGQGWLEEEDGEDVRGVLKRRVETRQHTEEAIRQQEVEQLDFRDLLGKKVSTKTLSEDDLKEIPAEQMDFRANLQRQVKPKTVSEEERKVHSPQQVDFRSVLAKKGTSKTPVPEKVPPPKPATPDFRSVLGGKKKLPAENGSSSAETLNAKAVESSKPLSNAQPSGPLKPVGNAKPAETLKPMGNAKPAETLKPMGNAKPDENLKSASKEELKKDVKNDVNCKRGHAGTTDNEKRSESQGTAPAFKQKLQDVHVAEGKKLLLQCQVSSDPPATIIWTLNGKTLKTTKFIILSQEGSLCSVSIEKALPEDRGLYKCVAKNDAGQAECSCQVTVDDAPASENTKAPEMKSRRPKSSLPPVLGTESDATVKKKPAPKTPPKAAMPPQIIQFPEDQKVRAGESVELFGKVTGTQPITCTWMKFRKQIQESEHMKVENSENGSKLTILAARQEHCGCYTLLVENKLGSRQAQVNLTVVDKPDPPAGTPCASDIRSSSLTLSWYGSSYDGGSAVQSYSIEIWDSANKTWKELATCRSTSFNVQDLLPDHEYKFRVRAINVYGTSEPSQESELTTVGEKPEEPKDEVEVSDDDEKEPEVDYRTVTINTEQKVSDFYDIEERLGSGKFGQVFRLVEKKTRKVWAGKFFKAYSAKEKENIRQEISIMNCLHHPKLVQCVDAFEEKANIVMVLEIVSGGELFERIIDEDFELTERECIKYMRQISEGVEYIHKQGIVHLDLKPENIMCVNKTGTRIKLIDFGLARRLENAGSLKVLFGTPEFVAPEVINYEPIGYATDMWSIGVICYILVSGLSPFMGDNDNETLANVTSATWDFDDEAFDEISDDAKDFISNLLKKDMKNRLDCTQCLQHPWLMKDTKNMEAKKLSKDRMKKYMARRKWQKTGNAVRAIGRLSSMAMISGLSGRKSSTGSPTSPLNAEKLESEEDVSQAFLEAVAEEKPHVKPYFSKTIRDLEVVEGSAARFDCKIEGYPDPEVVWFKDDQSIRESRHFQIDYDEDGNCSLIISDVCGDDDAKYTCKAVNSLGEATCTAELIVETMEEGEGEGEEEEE
Sequence of Leukocyte tyrosine kinase receptor (P29376 whole entry): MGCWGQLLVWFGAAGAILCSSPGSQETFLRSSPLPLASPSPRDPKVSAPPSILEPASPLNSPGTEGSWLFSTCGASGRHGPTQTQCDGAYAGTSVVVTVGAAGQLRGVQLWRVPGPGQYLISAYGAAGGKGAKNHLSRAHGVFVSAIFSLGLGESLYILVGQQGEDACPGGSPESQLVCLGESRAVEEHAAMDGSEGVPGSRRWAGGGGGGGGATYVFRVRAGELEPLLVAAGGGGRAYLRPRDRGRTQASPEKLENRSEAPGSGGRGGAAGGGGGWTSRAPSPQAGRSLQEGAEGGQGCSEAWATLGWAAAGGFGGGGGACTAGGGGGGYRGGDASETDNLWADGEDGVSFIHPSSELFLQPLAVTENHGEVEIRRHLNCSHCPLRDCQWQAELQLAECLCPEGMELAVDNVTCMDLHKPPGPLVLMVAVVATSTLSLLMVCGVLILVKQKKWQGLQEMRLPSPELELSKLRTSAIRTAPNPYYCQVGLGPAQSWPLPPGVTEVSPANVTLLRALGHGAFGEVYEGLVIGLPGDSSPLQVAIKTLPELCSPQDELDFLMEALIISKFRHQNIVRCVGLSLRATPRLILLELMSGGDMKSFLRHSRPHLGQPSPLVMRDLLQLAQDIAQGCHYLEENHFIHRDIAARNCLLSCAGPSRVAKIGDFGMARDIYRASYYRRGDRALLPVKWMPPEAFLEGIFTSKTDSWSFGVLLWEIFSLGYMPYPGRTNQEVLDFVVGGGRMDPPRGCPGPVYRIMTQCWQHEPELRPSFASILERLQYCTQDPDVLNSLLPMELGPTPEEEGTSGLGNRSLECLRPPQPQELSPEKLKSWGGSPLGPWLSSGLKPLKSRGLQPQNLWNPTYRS

Compound: CN(C)C/C=C/C(=O)Nc1ccc(C(=O)N2CCCC(Nc3ncc(Cl)c(-c4c[nH]c5ccccc45)n3)C2)cc1 (centres undefined)
% of control [1]: 86%

% of inhibition [2]: 0.492%
Compound: CC[C@@H]1[C@H](F)C(=O)N[C@@H]1COc1nccc2cc(C(N)=O)c(OC)cc12 [ZIMLOVISERTIB]

% of control [3]: 1.33%
Compound: Cn1cc(-n2cnc3c(NCc4nc5cc(Cl)c(Cl)cc5[nH]4)nc(N4CCOCC4)nc32)cn1

Compound: Cc1cc(F)c(C(=O)Nc2cccc(-c3nncn3C(C)C)n2)cc1-n1cnc(C2CC2)c1
% of control [4]: 93%

Compound: CCC(=O)N1CCN(c2ccc(-n3c(=O)ccc4cnc5ccc(-c6cnc7ccccc7c6)cc5c43)cc2C(F)(F)F)CC1
% of control [5]: 100%

Compound: N#Cc1cccc(-c2c[nH]c3ncnc(N4CCOCC4)c23)c1
% of inhibition [6]: -1%

Compound: O[C@H]1CC[C@H](Nc2ncc3nc(Nc4c(F)cc(F)cc4F)n([C@H]4CCOC4)c3n2)CC1
% of control [7]: 91%

Compound: CNC(=O)Nc1ccc(-c2nc(N3CC4CCC(C3)O4)c3cnn(C4CCC5(CC4)OCCO5)c3n2)cc1
% of control [8]: 100% | % of control [9]: 90%
